Laboratory results reported in US20140045943A1, “Hydroxamic Acid Derivatives, Preparation and Therapeutic Uses Thereof” (Naurex, Inc., priority 2008, published 2014).

Columns and labels:
[1] = system: rat retinal cell line, E1A-NR.3; test: 3-aminopropanal neurotoxicity assay, LDH release, retinal cell cultures; assay type: cell-based; conditions: for % Neuroprotection (600 μM): compound 600 μM, 24-hour incubation with 400 μM 3-aminopropanal in retinal ganglion cells
Method: The rat retinal cell line, E1A-NR.3, was grown in DMEM, containing 10% FBS, in 75 cm2 flasks. […] Media was collected and assayed for LDH using the Roche assay kit. Rabbit muscle LDH was used for the standard curve. Drug treatments of aldehyde sequestering agents were as co-treatments or delayed administration of about 0.5 to about 3 hours. All drugs were dissolved in PBS.

[2] = system: rat retinal cell line, E1A-NR.3; conditions: co-treatments and delayed addition; reference (1); cited from earlier work
Methemoglobin = test: Methemoglobinemia in the rat; assay type: in vivo; conditions: for Methemoglobin (%): 50 mg/kg, sc, 1 hr
Excerpt: Hydroxylamines are efficacious aldehyde sequestering agents but also may induce methemaglobinemia. Methemoglobinemia is the condition caused by the oxidation of hemoglobin into methemoglobin or a deficiency in the ability of the body to reduce methemoglobin to hemoglobin.
Table 2 sets forth a comparison of the percentage of hemoglobin that is in the form of methemoglobin under control conditions, in the presence of aldehyde sequestering agent, N-enzylhydroxylamine (NBHA) and the hydroxamic acid, AK-10.

Male Sprague Dawley rats = test: Trimethyltin (TMT) model, KCl-evoked glutamate release from hippocampal slices; assay type: in vivo, rat; conditions: AK-10 25 mg/kg, sc daily for 17 days, starting 24 hours after TMT 8 mg/kg, FIG. 3
Method: Male Sprague Dawley rats (200 g; Harlan) were administered […], sc trimethyltin (TMT) and housed individually as a result of the aggressive behavior induced by the neurotoxicant. The day following the TMT treatment, rats were started on a once daily dosing for 17 days with vehicle or AK-10 (25 mg/kg, sc) in PBS. Rats were decapitated on day 19 and the hippocampi isolated and placed in chilled Hanks Balanced Salt Solution containing 20 mM HEPES (HBSS-HEPES, 4° C.) for release experiments.
Chilled tissues were cut into 300 μm slices. A single slice was incubated in 2 ml of HBSS-HEPES in 12-well culture plates at 37° C. for 30 min. The media was discarded and the slice incubated for 2-10 min periods, each with fresh media. Next, the slices were incubated for 5 min after which the media was isolated for amino acid analyses (Pre-sample), followed by a 5 min incubation in which 50 mM KCl was added to evoke neurotransmitter release from the slices (KCl sample). Next, a final 5 min incubation in HBSS-HEPES was collected (Post sample). […]
For the GC-MS analysis of glutamate, an Agilent bench-top GC-MSD (HP6890/MSD5973) system was autotuned (41, 267 and 599) under PCI conditions with methane as the reagent gas. […] The [MH]+ ions that were monitored were 332 and 338 for endogenous GABA and its internal standard, and 490 and 495 for endogenous glutamate and its internal standard. […]

Row | Compound | % Neuroprotection (600 μM) [1] | protection of retinal cells from 3-aminopropanal toxicity [2] | other results
1 | CC(C)C(N)CC(=O)NO (centres unmarked) [AK-26, 3-amino-N-hydroxy-4-methylpentamide] | 58% | – | –
2 | CC(S)C(=O)NCC(=O)O (centres unmarked) [N-(2-mercaptopropionyl)-glycine] | – | active | –
3 | CC(C)CC(N)C(=O)NO (centres unmarked) [AK-10, 2-amino-N-hydroxy-4-methylpentamide] | 100% | – | Methemoglobin (%) (Methemoglobin): 2.2 ± 0.3%; methemoglobinemia (Methemoglobin; N-benzylhydroxylamine as positive control): lack of methemoglobinemia; delay of treatment after 3-AP still giving reduced 24-hour LDH levels ([1]; 300 μM AK-10, delayed co-treatment 0.5 to 3 hours, 400 μM 3-AP, FIG. 2): at least 3 hours; activity in the model of aldehyde-induced cell death ([1]; Table 1, FIG. 1, FIG. 2): most efficacious analog; 24-hour LDH level versus cells exposed to 3-AP alone ([1]; co-treatment, 150 μM, 300 μM and 600 μM AK-10 with 400 μM 3-AP, FIG. 1): significantly reduce; protection in the rat trimethyltin model of CA3 glutamatergic cell death (KCl-evoked glutamate release as index of CA3 neuronal loss) (Male Sprague Dawley rats): prevention of TMT neurotoxicity
4 | CC(C)(C)NO [t-butylhydroxylamine] | – | protected retinal cells | –
5 | ONCc1ccccc1 [NBHA, N-benzylhydroxylamine, reference compound] | – | protected retinal cells | Methemoglobin (%) (Methemoglobin): 22.6 ± 3.1%
6 | O=C1O[C@H]([C@@H](O)CO)C(O)=C1O [ascorbic acid, reference compound] | – | – | protection in the rat trimethyltin model of CA3 glutamatergic cell death (KCl-evoked glutamate release as index of CA3 neuronal loss) (Male Sprague Dawley rats): not
7 | CCCC(N)C(=O)NO (centres unmarked) [AK-25, 2-amino-N-hydroxypentamide] | 28% | – | –
8 | CC(=O)NC(CC(C)C)C(=O)NO (centres unmarked) [AK-12, 2-acetoamido-N-hydroxy-4-methylpentamide] | 10% | – | melting point: 47 to 49 °C
9 | CCC(C)C(N)C(=O)NO (centres unmarked) [AK-29, 2-amino-N-hydroxy-3-methylpentamide] | 4% | – | –
10 | CC(N)C(=O)NO (centres unmarked) [AK-27, 2-amino-N-hydroxypropanamide] | 6% | – | –
11 | CCC(N)C(=O)NO (centres unmarked) [AK-28, 2-amino-N-hydroxybutanamide] | 39% | – | –
12 | ONC1CCCCC1 [cyclohexylhydroxylamine] | – | protected retinal cells | –
